“And” between values parts separate entries of the source, which are not always exact repeats. Identical values can stand only once.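 Five compound concentrations were applied to cells in 96-well plates for 48 hours; endpoints were derived by simple linear interpolation of the resulting dose-response curve. Abbreviation: GI50, concentration required for 50% inhibition of growth. TGI: total growth inhibition.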
System: MDA-MB-468 breast
Experiment: inhibition of tumour cell growth, NCI panel, 48 h

Structure (SMILES)	GI50	TGI
COc1ccc(/C=C/C(=O)c2ccc(NC(=O)CSc3nnc(-c4ccc(OC)c(OC)c4)n3-c3ccccc3)cc2)cc1	1960 nM	4550 nM
C=CCSSC1N=CNc2nc[nH]c21 (centres undefined)	319 nM	14700 nM
CC[C@H](Nc1cc(C)nc(N)n1)c1nc2cccc(NCc3ccc(C(=O)NO)cc3)c2c(=O)n1-c1ccccc1	1460 nM	3240 nM
COC(=O)c1ccc2[nH]c(O)c(C(=Nc3ccc(N(C)C(=O)CN4CCN(C)CC4)cc3)c3ccc(OC)cc3)c2c1	1600 nM	3350 nM
O=C(/C=C/c1cccc(O)c1)c1cccc(-n2cc(-c3ccc(Cl)cc3)[nH]c2=O)c1	1700 nM	3830 nM
COc1ccc(C2C(C#N)=C(N)Oc3c2sc2c(C)cccc32)cc1 (centres undefined)	214 nM	641 nM
CCCc1n(Cc2ccc3ccccc3c2)c2ccccc2[n+]1Cc1ccc2ccccc2c1	130 nM	716 nM
C[C@@H]1CN(c2ccc3ncc(C#Cc4cncc(C(=O)Nc5ccc(CN6CCN(C)CC6)c(C(F)(F)F)c5)c4)n3n2)C[C@H](C)O1	35.5 nM	136 nM
O=C(Nc1ccc(OCc2nnc(-c3ccc(Cl)cc3)o2)c(F)c1)Nc1ccc(Cl)c(Cl)c1	2990 nM	17700 nM
CCOC(=O)c1ccc2c(c1)c1c(C)c3cnccc3c(C)c1n2C	289 nM	962 nM
Cc1ccc2c(c1)c(C1=C(c3cn(C)c4ccccc34)C(=O)NC1=O)cn2C	1030 nM	> 12600 nM
Nc1nonc1-c1nc2cnccc2n1C1CCCCC1	6940 nM	> 25000 nM
CN1CCN(Cc2ccc(NC(=O)c3cncc(C#Cc4cnc5ccc(N6CCN(C)CC6)nn45)c3)cc2C(F)(F)F)CC1	1380 nM	2760 nM
O=C1C=C(Nc2ccc([N+](=O)[O-])cc2)c2ccccc2C1=O	3050 nM	13400 nM
COC12COC(=O)C1C(c1ccc3c(c1)OCO3)c1cc3c(cc1O2)OCO3 (centres undefined)	23000 nM	> 100000 nM
C[C@]12CC[C@@H]3c4ccc(O)cc4CC[C@H]3[C@@H]1CC[C@@H]2NS(=O)(=O)c1cccc(OC(F)(F)F)c1	2610 nM	8010 nM
COC(=O)/C=C1/SC(=Nc2ccc(C(F)(F)F)cc2)N(CCc2c[nH]c3ccc(O)cc23)C1=O	2110 nM	5720 nM
CC#CC#Cc1cccc(=O)o1	1710 nM	5320 nM

Structure (SMILES)	GI50	TGI
Cn1cc(C2=C(c3cn(C)c4ccc(OCc5ccccc5)cc34)C(=O)NC2=O)c2ccccc21	> 25000 nM	> 25000 nM
CCN(CC)CCNc1ccc(C)c2sc3ccccc3c(=O)c12 (tested in a mixture with another compound)	2060 nM and 1980 nM	4220 nM and 4300 nM
CC/C(=C(\c1ccc(Cl)cc1)c1ccc(OCCN2CCCCC2)cc1)c1ccc(O)cc1	1650 nM	3320 nM
COc1ccc(C(O)c2cc3c(N)c(C(=O)Nc4ccc(Br)cc4)sc3nc2C)cc1 (centres undefined)	2190 nM	9090 nM
Clc1ccc(-c2ccc(CNCC3CCNCC3)o2)c(-c2ccccc2)c1	1570 nM	3250 nM
Cc1cc2nc3c4cc(C=O)ccc4n(CCN(C)C)c3nc2cc1C	1160 nM	3210 nM
CC(C)OC(=O)Nc1ccc(-c2nc(-c3cccc(OCCN4CCOCC4)c3)c(-c3ccnc(Br)c3)[nH]2)cc1	2010 nM	5300 nM
CCCOC(=O)c1ccc2c(c1)[N+](=O)C(C(=O)c1ccccc1)=C(C(F)(F)F)[N+]2=O	1710 nM	3510 nM
CC(=O)Nc1cccc(C#Cc2cncnc2Nc2ccc(OCc3cccc(F)c3)c(Cl)c2)n1	557 nM	> 6260 nM
FC(F)(F)c1cc(Nc2cccc(Oc3ccc(NC4=NCCN4)nc3)c2)ccc1Cl	1610 nM	3440 nM
C=CC(=O)N1CC2(CCC(n3nc(-c4ccc(Oc5ccccc5)cc4)c4c(N)ncnc43)CC2)C1	244 nM	1620 nM
CCOC(=O)Nc1nc2cc(OC)c(OC)c(OC)c2s1	> 100000 nM	> 100000 nM
CC(=O)N1CCN([C@H]2CCC[C@@H](NC(=O)c3cc4c(F)ccc(C)c4[nH]3)C2)CC1	9060 nM	37200 nM
COc1cc(C(=O)/C=C/c2c(C)n([O-])c3ccc(C(F)(F)F)cc3[n+]2=O)cc(OC)c1OC	1590 nM	3490 nM
COC(=O)C(=Cc1ccccc1[N+](=O)[O-])C(=O)OC	5030 nM	28200 nM
Cc1ccc2cc3c(N)c4c(C)ccc(C)c4nc3nc2c1	1470 nM	3730 nM
CC(=O)O[C@H]1C(=O)[C@@]2(C)[C@H]([C@H](OC(=O)c3ccccc3)[C@]3(O)C[C@H](OC(=O)[C@H](OC(=O)OC[C@@H]4COC(C)(C)O4)[C@@H](NC(=O)c4ccccc4)c4ccccc4)C(C)=C1C3(C)C)[C@]1(OC(C)=O)CO[C@@H]1C[C@@H]2O	28 nM	

Reference: PubChem BioAssay (NCI)
